# Legend:
# ABUTH = assay: Post-emergence herbicidal effect, greenhouse pot test; type: in vivo, Abutilon theophrasti; conditions: visual rating about 3 weeks after treatment
# Description: (§1) • ALOMY: Alopecurus myosuroides SETVI: Setaria viridis • AVEFA: Avena fatua POLCO: Fallopia convolvulus • AMARE: Amaranthus retroflexus ECHCG: Echinochloa crus-galli • LOLRJ: Lolium rigidum STEME: Stellaria media • VERPE: Veronica persica MATIN: Tripleurospermum inodorum • DIGSA: Digitaria sanguinalis ABUTH: Abutylon threophrasti • TRZAS: Triticum aestivum VIOTR: Viola tricolor • BRSNW: Brassica napus ZEAMX: Zea mays • PHBPU: Ipomoea purpurea GLXMA: Glycine max • ORYSA: Oryza sativa HORMU: Hordeum murinum
# (§2) Seeds of monocotyledonous and dicotyledonous weeds and crop plants are placed in sandy loam in plastic or organic planting pots, covered with soil and cultivated in a greenhouse under controlled growth conditions. 2 to 3 weeks after sowing, the trial plants are treated at the one-leaf stage. The compounds of the invention, formulated in the form of wettable powders (WP) or as emulsion concentrates (EC), are then sprayed onto the green parts of the plants as aqueous suspension or emulsion with addition of 0.5% additive at a water application rate of 600 l/ha (converted). After the test plants have been kept in the greenhouse under optimum growth conditions for about 3 weeks, the activity of the preparations is rated visually in comparison to untreated controls. For example, 100% activity=the plants have died, 0% activity=like control plants.
# (§3) Tables 20a to 38c below show the effects/crop compatibilities of selected compounds of the general formula (I) on various harmful plants at an application rate corresponding to 20 to 320 g/ha, which were obtained by the trial procedure specified above.
# ALOMY = assay: as above; type: in vivo, Alopecurus myosuroides; conditions: 320 g/ha, visual rating about 3 weeks after treatment
# Description: as §1, §2, §3
# AVEFA = assay: as above; type: in vivo, Avena fatua; conditions: visual rating about 3 weeks after treatment
# Description: as §1, §2, §3
# DIGSA = assay: as above; type: in vivo, Digitaria sanguinalis; conditions: visual rating about 3 weeks after treatment
# Description: as §1, §2, §3
# ECHCG = assay: as above; type: in vivo, Echinochloa crus-galli
# Description: as §1, §2, §3
# MATIN = assay: as above; type: in vivo, Tripleurospermum inodorum
# Description: as §1, §2, §3
# PHBPU = assay: as above; type: in vivo, Ipomoea purpurea
# Description: as §1, §2, §3
# POLCO = assay: as above; type: in vivo, Fallopia convolvulus
# Description: as §1, §2, §3
# SETVI = assay: as above; type: in vivo, Setaria viridis
# Description: as §1, §2, §3
# VERPE = assay: as above; type: in vivo, Veronica persica
# Description: as §1, §2, §3
# VIOTR = assay: as above; type: in vivo, Viola tricolor
# Description: as §1, §2, §3
# KCHSC = assay: as above; type: in vivo
# Protocol: as §2, with “plants. Tables 20a to 38c below show the effects/crop compatibilities of selected compounds of the general formula (I) on various harmful plants at an application rate corresponding to 20 to 320 g/ha, which were obtained by the trial procedure specified above.” for “plants.”
# ZEAMX = assay: Post-emergence herbicidal effect and crop plant compatibility, greenhouse pot test; type: in vivo, Zea mays; conditions: 20 g/ha, one-leaf stage, rated visually after about 3 weeks vs untreated controls
# Description: as §1, §2, §3
structure (smiles),measurement,setting,value
"CCOC(Oc1nn(-c2ccccc2F)c(-c2ccc(F)nc2)c1Br)C(=O)OCCC(=O)OC (single isomer, unassigned) [Example I-63, Methyl 3-{[(2R*)-2-{[4-bromo-1-(2-fluorophenyl)-5-(6-fluoropyridin-3-yl)-1H-pyrazol-3-yl]oxy}-2-ethoxyethanoyl]oxy}propanoate]",pest or weed control at 80 g/ha,"ABUTH; Abutilon theophrasti, 504 h, 80 g/ha, read-out: Post-emergence effect against ABUTH",90%
same,pest or weed control at 320 g/ha,"ABUTH; Abutilon theophrasti, 504 h, 320 g/ha, read-out: Post-emergence effect against ABUTH",90%
same,pest or weed control at 320 g/ha,"ALOMY; Alopecurus myosuroides, 504 h, read-out: Post-emergence effect against ALOMY",90%
same,pest or weed control at 80 g/ha,"AVEFA; Avena fatua, 504 h, 80 g/ha, read-out: Post-emergence effect against AVEFA",80%
same,pest or weed control at 320 g/ha,"AVEFA; Avena fatua, 504 h, 320 g/ha, read-out: Post-emergence effect against AVEFA",90%
same,pest or weed control at 80 g/ha,"DIGSA; Digitaria sanguinalis, 504 h, 80 g/ha, read-out: Post-emergence effect against DIGSA",90%
same,pest or weed control at 320 g/ha,"DIGSA; Digitaria sanguinalis, 504 h, 320 g/ha, read-out: Post-emergence effect against DIGSA",90%
same,pest or weed control at 20 g/ha,"ECHCG; Echinochloa crus-galli, 504 h, 20 g/ha, visual rating about 3 weeks after treatment, read-out: Post-emergence effect against ECHCG",90%
same,pest or weed control at 80 g/ha,"ECHCG; Echinochloa crus-galli, 504 h, 80 g/ha, read-out: Post-emergence effect against ECHCG in %",90%
same,pest or weed control at 320 g/ha,"ECHCG; Echinochloa crus-galli, 504 h, 320 g/ha, read-out: Post-emergence effect against ECHCG in %",90%
same,pest or weed control at 80 g/ha,"MATIN; Tripleurospermum inodorum, 504 h, 80 g/ha, read-out: Post-emergence effect against MATIN in %",80%
same,pest or weed control at 320 g/ha,"MATIN; Tripleurospermum inodorum, 504 h, 320 g/ha, read-out: Post-emergence effect against MATIN in %",80%
same,pest or weed control at 20 g/ha,"PHBPU; Ipomoea purpurea, 504 h, 20 g/ha, read-out: Post-emergence effect against PHBPU in %",80%
same,pest or weed control at 80 g/ha,"PHBPU; Ipomoea purpurea, 504 h, 80 g/ha, read-out: Post-emergence effect against PHBPU in %",90%
same,pest or weed control at 320 g/ha,"PHBPU; Ipomoea purpurea, 504 h, 320 g/ha, read-out: Post-emergence effect against PHBPU in %",90%
same,pest or weed control at 80 g/ha,"POLCO; Fallopia convolvulus, 504 h, 80 g/ha, read-out: Post-emergence effect against POLCO in %",80%
same,pest or weed control at 320 g/ha,"POLCO; Fallopia convolvulus, 504 h, 320 g/ha, read-out: Post-emergence effect against POLCO in %",90%
same,pest or weed control at 80 g/ha,"SETVI; Setaria viridis, 504 h, 80 g/ha, read-out: Post-emergence effect against SETVI in %",90%
same,pest or weed control at 320 g/ha,"SETVI; Setaria viridis, 504 h, 320 g/ha, read-out: Post-emergence effect against SETVI in %",90%
same,pest or weed control at 80 g/ha,"VERPE; Veronica persica, 504 h, 80 g/ha, read-out: Post-emergence effect against VERPE in %",80%
same,pest or weed control at 320 g/ha,"VERPE; Veronica persica, 504 h, 320 g/ha, read-out: Post-emergence effect against VERPE in %",80%
same,pest or weed control at 80 g/ha,"VIOTR; Viola tricolor, 504 h, 80 g/ha, read-out: Post-emergence effect against VIOTR in %",80%
same,pest or weed control at 320 g/ha,"VIOTR; Viola tricolor, 504 h, 320 g/ha, read-out: Post-emergence effect against VIOTR in %",90%
same,pest or weed control at 320 g/ha,"KCHSC; 504 h, 320 g/ha, read-out: Post-emergence effect against KCHSC in %",90%
COC(=O)CCOC(=O)C(OC)Oc1nn(-c2ccccc2F)c(-c2ccc(F)nc2)c1C1CC1 (stereo not drawn) [Example I-61],Post-emergence effect at 20 g/ha against ZEAMX in %,ZEAMX,0%
same,Post-emergence effect against ABUTH,ABUTH; 80 g/ha,80%
same,Post-emergence effect against ABUTH,ABUTH; 320 g/ha,80%
same,Post-emergence effect against ALOMY,ALOMY,90%
same,Post-emergence effect against AVEFA,AVEFA; 80 g/ha,80%
same,Post-emergence effect against AVEFA,AVEFA; 320 g/ha,90%
same,Post-emergence effect against DIGSA,DIGSA; 80 g/ha,80%
same,Post-emergence effect against DIGSA,DIGSA; 320 g/ha,90%
same,Post-emergence effect against ECHCG in %,ECHCG; 80 g/ha,90%
same,Post-emergence effect against ECHCG in %,ECHCG; 320 g/ha,90%
same,Post-emergence effect against MATIN in %,MATIN; 80 g/ha,80%
same,Post-emergence effect against MATIN in %,MATIN; 320 g/ha,80%
same,Post-emergence effect against PHBPU in %,PHBPU; 80 g/ha,90%
same,Post-emergence effect against PHBPU in %,PHBPU; 320 g/ha,90%
same,Post-emergence effect against POLCO in %,POLCO; 80 g/ha,80%
same,Post-emergence effect against POLCO in %,POLCO; 320 g/ha,80%
same,Post-emergence effect against SETVI in %,SETVI; 80 g/ha,90%
same,Post-emergence effect against SETVI in %,SETVI; 320 g/ha,90%
same,Post-emergence effect against VERPE in %,VERPE; 80 g/ha,80%
same,Post-emergence effect against VERPE in %,VERPE; 320 g/ha,80%
same,Post-emergence effect against VIOTR in %,VIOTR; 20 g/ha,80%
same,Post-emergence effect against VIOTR in %,VIOTR; 80 g/ha,90%
same,Post-emergence effect against VIOTR in %,VIOTR; 320 g/ha,90%
same,Post-emergence effect against KCHSC in %,KCHSC; 80 g/ha,80%
same,Post-emergence effect against KCHSC in %,KCHSC; 320 g/ha,90%
COC(=O)CCOC(=O)C(OC)Oc1nn(-c2ccccc2F)c(-c2ccc(F)nc2)c1C(F)(F)F (stereo not drawn) [Example I-62],Post-emergence effect at 20 g/ha against ZEAMX in %,ZEAMX,0%
same,Post-emergence effect against ABUTH,ABUTH; 80 g/ha,80%
same,Post-emergence effect against ABUTH,ABUTH; 320 g/ha,90%
same,Post-emergence effect against ALOMY,ALOMY,90%
same,Post-emergence effect against AVEFA,AVEFA; 80 g/ha,90%
same,Post-emergence effect against AVEFA,AVEFA; 320 g/ha,90%
same,Post-emergence effect against DIGSA,DIGSA; 80 g/ha,90%
same,Post-emergence effect against DIGSA,DIGSA; 320 g/ha,90%
same,Post-emergence effect against ECHCG in %,ECHCG; 80 g/ha,90%
same,Post-emergence effect against ECHCG in %,ECHCG; 320 g/ha,90%
same,Post-emergence effect against MATIN in %,MATIN; 80 g/ha,80%
same,Post-emergence effect against MATIN in %,MATIN; 320 g/ha,80%
same,Post-emergence effect against PHBPU in %,PHBPU; 20 g/ha,90%
same,Post-emergence effect against PHBPU in %,PHBPU; 80 g/ha,90%
same,Post-emergence effect against PHBPU in %,PHBPU; 320 g/ha,90%
same,Post-emergence effect against POLCO in %,POLCO; 80 g/ha,80%
same,Post-emergence effect against POLCO in %,POLCO; 320 g/ha,80%
same,Post-emergence effect against SETVI in %,SETVI; 80 g/ha,90%
same,Post-emergence effect against SETVI in %,SETVI; 320 g/ha,90%
same,Post-emergence effect against VERPE in %,VERPE; 80 g/ha,80%
same,Post-emergence effect against VERPE in %,VERPE; 320 g/ha,80%
same,Post-emergence effect against VIOTR in %,VIOTR; 80 g/ha,90%
same,Post-emergence effect against VIOTR in %,VIOTR; 320 g/ha,90%
same,Post-emergence effect against KCHSC in %,KCHSC; 20 g/ha,80%
same,Post-emergence effect against KCHSC in %,KCHSC; 80 g/ha,90%
same,Post-emergence effect against KCHSC in %,KCHSC; 320 g/ha,90%

# Source: US20240391862A1, “(1,4,5-TRISUBSTITUTED-1H-PYRAZOL-3-YL)OXY-2-ALKOXY ALKYL ACIDS AND THEIR DERIVATIVES, THEIR SALTS AND THEIR USE AS HERBICIDAL AGENTS” (Bayer AKtiengesellschaft, priority 2021, published 2024)
